# Laboratory results as given in ChEMBL document CHEMBL1121823, “A novel connector linkage applicable in prodrug design” (J Med Chem, 1981).
# Columns and labels:
# Assay type in all cases: ADME
# [1] = Half-life was determined; conditions: human
# [2] = Half-life in aqueous buffer (0.05 M bistris, pH 6.9) in the absence of trypsin was determined at 25 degree C; conditions: aqueous buffer without trypsin
# [3] = Half-life in aqueous buffer (0.05 M bistris, pH 6.9) in the presence of trypsin (2.5 ug/ml) was determined at 25 degree C
Compound,half-life [1] [min],half-life [2] [h],half-life [3] [min]
NC(=O)OCc1ccc(N)cc1,1.5,,
CC(C)(C)OC(=O)NC(CCCCN)C(=O)Nc1ccc(COC(=O)Nc2ccc([N+](=O)[O-])cc2)cc1 (stereo not drawn),,40,11
